The values below come from US11028090B2 (Dong Wha Pharm. Co., Ltd., priority 2017, dated 2021).

Assay [1] deals with BRD4 (BD1+BD2) bromodomain (Homo sapiens (Human), UniProt O60885). As to the kind of experiment: BRD4 binding inhibition (AlphaScreen, GST-BRD4 vs tetraacetylated histone H4 peptide). The method, boiled down: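 GST-BRD4 (BD1+BD2) and biotinylated tetraacetyl-histone H4 peptide, each at 100 nM in HEPES pH 7.4 buffer with BSA and DTT, were combined with compound. Glutathione acceptor and streptavidin donor beads were added, then incubated 30 min at room temperature in the dark. Read-out was AlphaScreen signal.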

Assay [2] relates to acute myelogenous leukemia cells (MV-4-11 cells). Nature of the assay: Cytotoxicity to acute myelogenous leukemia cells (MV-4-11 cells), CCK-8. The note with it: Homo sapiens, MV4-11, 72 h.
Where [3] appears, read: GST-BRD4 (BD1+BD2) / biotinylated acetyl-histone H4 (Lys5,8,12,16) peptide, read-out: IC50, BRD4 binding inhibition.
[4] abbreviates: GST-BRD4 (BD1+BD2) vs biotinylated acetyl-histone H4 peptide, AlphaScreen, read-out: BRD4 IC50.
The mark [5] stands for this setting: read-out: IC50, cytotoxicity against acute myelogenous leukemia cells.
Setting [6] is: read-out: MV-4-11 Cytotoxicity IC50.

Where two headings read alike, the source gives them in different places.

One may read the IC50 as the concentration that gives 50% inhibition. In the case of `CCOc1cc2nc(NCCCCNC(=O)OCC(C)C)c3nnc(C)n3c2cc1OCC` [Example 176, [4-(7,8-diethoxy-1-methyl-[1,2,4]triazolo[4,3-a]quinoxaline-4-ylamino)-butyl]-carbamic acid isobutylester], the IC50 in assay [1] (setting [3]) was at most 10 nM; in assay [1] (setting [4]), 2 nM; in assay [2] (setting [5]), at most 200 nM; in assay [2] (setting [6]) it was 110 nM.

For `COCCOc1ccc2c(c1)nc(NCCCCNC(=O)c1ccccc1OC)c1nnc(C)n12` [Example 414, 2-methoxy-N-{4-[7-(2-methoxy-ethoxy)-1-methyl-[1,2,4]triazolo[4,3-a]quinoxaline-4-ylamino]-butyl}-benzamide], the half-maximal inhibitory concentration (IC50) in assay [1] (setting [3]) is at most 50 nM; in assay [1] (setting [4]), 16 nM; in assay [2] (setting [6]) it was 630 nM.

With `COc1ccc2c(c1)nc(NCCCCC(=O)NCc1ccco1)c1nnc(C)n12` [Example 657], the IC50 is at most 50 nM in assay [1] (setting [3]), 16 nM in assay [1] (setting [4]), at most 200 nM in assay [2] (setting [5]) and 80 nM in assay [2] (setting [6]).

For `CCCOC(=O)NCCCCNc1nc2cc(OC)c(OC)cc2n2c(C)nnc12` [Example 64, [4-(7,8-dimethoxy-1-methyl-[1,2,4]triazolo[4,3-a]quinoxaline-4-ylamino)-butyl]-carbamic acid propylester], the IC50 was at most 50 nM in assay [1] (setting [3]), 20 nM in assay [1] (setting [4]), at most 200 nM in assay [2] (setting [5]) and 120 nM in assay [2] (setting [6]).

Take `Cc1nnc2c(NCCCCNC(=O)CC(C)C)nc3cc(-c4nc5ccccc5[nH]4)ccc3n12` [Example 224, N-{4-[7-(1H-benzoimidazole-2-yl)-1-methyl-[1,2,4]triazolo[4,3-a]quinoxaline-4-ylamino]-butyl}-3-methyl-butyramide]: the IC50 in assay [1] (setting [3]) is at most 50 nM; in assay [1] (setting [4]) it was 13 nM; in assay [2] (setting [5]), at most 200 nM; in assay [2] (setting [6]), 3 nM.

With `CCC(CC)C(=O)NCCCCNc1nc2cc(OCCOC)ccc2n2c(C)nnc12` [Example 381, 2-ethyl-N-{4-[7-(2-methoxy-ethoxy)-1-methyl-[1,2,4]triazolo[4,3-a]quinoxaline-4-ylamino]-butyl}-butyramide], the concentration for half-maximal inhibition (IC50) is at most 50 nM in assay [1] (setting [3]), 14 nM in assay [1] (setting [4]), at most 200 nM in assay [2] (setting [5]) and 200 nM in assay [2] (setting [6]).

On to `Cc1nnc2c(NCCCCNC(=O)CC(C)C)nc3ccc(N)cc3n12` [Example 551, N-[4-(8-amino-1-methyl-[1,2,4]triazolo[4,3-a]quinoxaline-4-ylamino)-butyl]-3-methyl-butyramide], for which the IC50 in assay [1] (setting [3]) was at most 50 nM; in assay [1] (setting [4]), 12 nM; in assay [2] (setting [5]) it was at most 200 nM; in assay [2] (setting [6]), 135 nM.

On to `CCC(C)OC(=O)NCCCCNc1nc2cc(OC)ccc2n2c(C)nnc12` (centres unmarked) [Example 280, [4-(7-methoxy-1-methyl-[1,2,4]triazolo[4,3-a]quinoxaline-4-ylamino)-butyl]-carbamic acid-sec-butylester], for which the IC50 is at most 50 nM in assay [1] (setting [3]), 14 nM in assay [1] (setting [4]), at most 200 nM in assay [2] (setting [5]) and 40 nM in assay [2] (setting [6]).

`COc1cc2nc(NCCCCNC(=O)CC(C)C)c3nnc(C)n3c2cc1NC(=O)CC(C)(C)C` [Example 563]: the IC50 was at most 50 nM in assay [1] (setting [3]) and 559 nM in assay [2] (setting [6]).

`COCCOc1ccc2c(c1)nc(NCCCCNC(=O)NC1CCCCC1)c1nnc(C)n12` [Example 426, 1-cyclohexyl-3-{4-[7-(2-methoxy-ethoxy)-1-methyl-[1,2,4]triazolo[4,3-a]quinoxaline-4-ylamino]-butyl}-urea]: the IC50 in assay [1] (setting [3]) is at most 50 nM; in assay [1] (setting [4]) it was 17 nM; in assay [2] (setting [5]), at most 200 nM; in assay [2] (setting [6]), 190 nM.

For `Cc1nnc2c(NCCCCNC(=O)C(C)(C)C)nc3cc(-c4nc5ccccc5n4C)ccc3n12` [Example 230, 2,2-dimethyl-N-{4-[1-methyl-7-(1-methyl-1H-benzoimidazole-2-yl)-[1,2,4]triazolo[4,3-a]quinoxaline-4-ylamino]-butyl}-propionamide], the IC50 in assay [1] (setting [3]) is at most 50 nM; in assay [1] (setting [4]) it was 13 nM; in assay [2] (setting [6]), 580 nM.

With `COCCOc1ccc2c(c1)nc(NCCCCNC(=O)CCC(C)C)c1nnc(C)n12` [Example 383, 4-methyl-pentanoic acid{4-[7-(2-methoxy-ethoxy)-1-methyl-[1,2,4]triazolo[4,3-a]quinoxaline-4-ylamino]-butyl}-amide], the IC50 in assay [1] (setting [3]) is at most 10 nM; in assay [1] (setting [4]) it was 3 nM; in assay [2] (setting [5]), at most 200 nM; in assay [2] (setting [6]) it was 73 nM.

Turning to `COc1ccc2c(c1)nc(NCCCCNC(=O)[C@@H](O)C(C)C)c1nnc(C)n12` [Example 299, 2-(S)-hydroxy-N-[4-(7-methoxy-1-methyl-[1,2,4]triazolo[4,3-a]quinoxaline-4-ylamino)-butyl]-3-methyl-butyramide], the IC50 in assay [1] (setting [3]) is at most 10 nM; in assay [1] (setting [4]) it was 7 nM; in assay [2] (setting [6]), 375 nM.

Regarding `Cc1ccc2[nH]c(-c3ccc4c(c3)nc(NCCCCNC(=O)CC(C)C)c3nnc(C)n34)nc2c1` [Example 223, 3-methyl-N-{4-[1-methyl-7-(5-methyl-1H-benzoimidazole-2-yl)-[1,2,4]triazolo[4,3-a]quinoxaline-4-ylamino]-butyl}-butyramide], the IC50 is at most 50 nM in assay [1] (setting [3]), 17 nM in assay [1] (setting [4]), at most 200 nM in assay [2] (setting [5]) and 14 nM in assay [2] (setting [6]).

Regarding `COc1ccc2c(c1)nc(NCCCCNC(=O)NC(C)C)c1nnc(C)n12` [Example 330, 1-isopropyl-3-[4-(7-methoxy-1-methyl-[1,2,4]triazolo[4,3-a]quinoxaline-4-ylamino)-butyl]-urea], the IC50 in assay [1] (setting [3]) was at most 50 nM; in assay [1] (setting [4]) it was 29 nM; in assay [2] (setting [5]), at most 200 nM; in assay [2] (setting [6]), 140 nM.

As for `COc1ccc2c(c1)nc(NCCCCNC(=O)Oc1ccccc1)c1nnc(C)n12` [Example 333, [4-(7-methoxy-1-methyl-[1,2,4]triazolo[4,3-a]quinoxaline-4-ylamino)-butyl]-carbamic acid phenylester], the IC50 in assay [1] (setting [4]) is 18 nM; in assay [1] (IC50, BRD4 binding inhibition, GST-BRD4 (BD1+BD2) / biotinylated acetyl-histone H4 (Lys5,8,12,16) peptide) it was at most 50 nM; in assay [2] (setting [5]), at most 200 nM; in assay [2] (setting [6]) it was 110 nM.

In the case of `Cc1nnc2c(NCCCCNC(=O)OC(C)(C)C)nc3cc(-n4ccnc4)ccc3n12` [Example 490, [4-(7-imidazole-1-yl-1-methyl-[1,2,4]triazolo[4,3-a]quinoxaline-4-ylamino)-butyl]-carbamic acid-tert-butylester], the IC50 is at most 10 nM in assay [1] (setting [3]), 9 nM in assay [1] (setting [4]), at most 200 nM in assay [2] (setting [5]) and 190 nM in assay [2] (setting [6]).

Take `COc1cc2nc(NCCCCNC(=O)Cc3ccccc3)c3nnc(C)n3c2cc1OC` [Example 86, N-[4-(7,8-dimethoxy-1-methyl-[1,2,4]triazolo[4,3-a]quinoxaline-4-ylamino)-butyl]-2-phenyl-acetamide]: the IC50 is at most 50 nM in assay [1] (setting [3]), 17 nM in assay [1] (setting [4]), at most 200 nM in assay [2] (setting [5]) and 60 nM in assay [2] (setting [6]).

As for `COCCOc1ccc2c(c1)nc(NCCCCNC(=O)[C@@H](O)C(C)C)c1nnc(C)n12` [Example 389, 2-(S)-hydroxy-N-{4-[7-(2-methoxy-ethoxy)-1-methyl-[1,2,4]triazolo[4,3-a]quinoxaline-4-ylamino]-butyl}-3-methyl-butyramide], the IC50 in assay [1] (setting [3]) is at most 10 nM; in assay [1] (setting [4]), 2 nM; in assay [2] (setting [5]) it was at most 200 nM; in assay [2] (setting [6]), 79 nM.
